Data published in US10329532B2, “Method to direct differentiation of pluripotent stem cells into functional heart muscle” (GEORG-AUGUST-UNIVERSITÄT GÖTTINGEN STIFTUNG ÖFFENTLICHEN …, priority 2013, dated 2019).
“Also recorded” adds a separate entry of the source. Like-named read-outs stand apart in the source and are kept apart here.

Tests used:
Assay type in all cases: cell-based, human
[1] = tested on: HES2 hPSCs; experiment: 2D cardiac differentiation of hPSC (MESP1 qPCR day 3, α-actinin flow cytometry day 16, beating activity)
Description: For this reason a cardiac differentiation protocol was firstly required which consistently produced cardiomyocytes and fibroblasts/stromal cells. The inventors optimized their cardiac differentiation protocol (FIG. 1a) for both yield and consistency, based on a previously published serum-free 2D hPSC differentiation protocol (Hudson et al. Stem Cells Dev 21, 1513-1523 (2012)). It was reasoned that robustness and efficiency could be enhanced if WNT activity was stabilized during the mesoderm induction phase. As surrogate marker for mesoderm induction MESP1 expression was analysed by qPCR on culture day 3; this was followed by flow cytometry for α-actinin (cardiomyocyte marker) at day 16, which were found correlated very well with the amount of beating activity.
Cardiac differentiation was optimized on the HES2 line. HES2 hPSCs were plated at 5×10^4 cells/cm^2 (1×10^5 cells/cm^2 for HES3 and hIPS lines) on 1:30 Matrigel/PBS coated-plates and cultured in 1:1 PSC-medium minus FGF-2 and HFF-conditioned medium (HFF-CM—harvested from 5 day confluent irradiated HFF cultures) with 10 ng/mL FGF2. For the hIPS line 10 μM Y-27632 was added to this medium. After 1 day the cells were rinsed with RPMI medium, then differentiated as indicated in each figure with 0.5 ml of medium in each well of a 24 well plate. The protocol details for each figure are outlined in FIG. 8.
(§1) Cells, BHMs or human heart biopsies were harvested and stored at −80° C. until RNA extraction using Trizol following manufacturer's instructions (Applied Biosystems). 1 μg of RNA was then treated with DNAse (Roche) followed by cDNA synthesis using a High Capacity cDNA Reverse Transcription Kit (Applied Biosystems). qPCR was performed using Fast SYBR Green Master Mix (Applied Biosystems) on a 384-well format AB7900 HT (Applied Biosystems). Gene expression was normalized using 2^−ΔCt or 2^−ΔΔCt using GAPDH as the housekeeping gene which we found to be consistently expressed between conditions in all of our experiments. Primer details are given in below Table 1.
(§2) Cells were stained either live or fixed using Histofix for 10 min at room temperature or ethanol. The cells were stained in 5% FBS in PBS (membrane blocking buffer) for cell surface markers (excluding TRA-1-60) and blocking buffer for internal markers. The cells were then stained with primary antibodies in blocking buffer for 45 min followed by secondary antibodies in blocking buffer and Hoechst for 30 min at 4° C. (Table 2). A BD LSRII was used for flow cytometry analysis (BD Biosystems). Live cells populations were gated based on forward-side scatter profiles; fixed cells populations were gated based on Hoechst staining. BD FACSDiva Software (BD Bioscience) or Cyflologic v1.2.1 (Cyflo Ltd) were used for analysis.

[2] = tested on: bioengineered heart muscle (BHM); experiment: qPCR gene expression in BHM; details: for pathological hypertrophy marker ANP expression / β-MHC/α-MHC expression ratio: growth factor added during cardiac maturation (FGF2: 10 ng/mL, TGFb1: 1 ng/mL)
Method: (§3) BHM formation was optimized on the HES2 line. HES2 hPSCs were suspended 1:1 in PSC-medium minus FGF-2 and HFF-conditioned medium (HFF-CM—harvested from 5 day confluent irradiated HFF cultures) with 10 ng/mL FGF2 and mixed with a collagen I hydrogel. For the HES3, and hIPS lines 10 μM Y-27632 was also added to the medium. The collagen I matrix was formulated with acid-soluabilized bovine collagen I (Devro) with an equi-volume of 2×DMEM (Gibco) and neutralized using 0.1 M sodium hydroxide. The hPSC/collagen I matrix was formulated to give a final collagen I concentration of 1 mg/ml and 5×10^5 hPSC per 170 μl. For the HES3 and hIPS lines 1×10^6 and 0.5×10^6 cells were used respectively per 170 μl. For each BHM, 170 μl of the hPSC/collagen I matrix was pipette into circular molds (i.d.=4 mm, o.d.=10 mm) fabricated using poly(dimethylsiloxane) (Sylgard, Dow Corning). After 10 min of culture in the incubator at 37° C. the collagen gelled and 1.25 ml of 1:1 human foreskin fibroblast-conditioned medium with 10 ng/ml FGF2 was added per BHM. The following day the BHMs were rinsed with RPMI medium and then differentiated as indicated in each figure, with 1.25 ml of medium per BHM. At day 13 the BHM were transferred onto mechanical stimulators as indicated. The protocol details for each figure are outlined in FIG. 8.
as §1

[3] = tested on: bioengineered heart muscle (BHM); experiment: Isometric contraction measurements of BHM (twitch tension/force of contraction) in organ baths; details: for twitch tension/force of contraction: growth factor added during cardiac maturation (FGF2: 10 ng/mL, TGFb1: 1 ng/mL)
Method: Briefly, contraction experiments are performed in organ baths at 37° C. under constant bubbling with 5% CO2 and 95% O2 to maintain a physiological pH in Tyrode's solution containing (all in mM): 120 NaCl, 1 MgCl2, 0.2 CaCl2, 5.4 KCl, 22.6 NaHCO3, 4.2 NaH2PO4, 5.6 glucose and 0.56 ascorbate. Calcium is adjusted using a 0.2 M calcium chloride solution. All BHM are analysed at 3 Hz with 5 ms square pulses of 200 mA electrical current in order to pace at approximately the embryonic heart rate. Stimulation frequency is altered to confirm proper force-frequency response (Bowditch mechanism). BHM are mechanically stretched at intervals of 125 μm until the maximum twitch force is observed (force-length response; Frank-Starling mechanism).
Briefly, all contraction experiments are performed in organ baths at 37° C. and physiological pH in Tyrode's solution containing (all in mM): 120 NaCl, 1 MgCl2, 0.2 CaCl2, 5.4 KCl, 22.6 NaHCO3, 4.2 NaH2PO4, 5.6 glucose and 0.56 ascorbate. Calcium is adjusted using a 0.2 M calcium chloride solution. All BHM are analysed at 3 Hz with 5 ms square pulses of 200 mA electrical current in order to pace at approximately the embryonic heart rate. Stimulation frequency is altered to confirm proper force-frequency response (Bowditch mechanism). BHM are mechanically stretched at intervals of 125 μm until the maximum twitch force is observed at 2 mM calcium (Frank-Starling mechanism). Subsequently, BHM are subjected to different calcium concentrations (0.2, 0.4, 0.8, 1.2, 1.6, 2.0, 2.4 mM) and the twitch force is recorded. For isoprenaline experiments the calcium concentration is adjusted to 0.6 mM and subsequently the isoprenaline concentration is adjusted to 1 μM.
as §3
Contraction experiments were performed in organ baths at 37° C. and continuous bubbling with 5% CO2/95% O2 to maintain a physiological pH in Tyrode's solution containing (all in mM): 120 NaCl, 1 MgCl2, 0.2 CaCl2, 5.4 KCl, 22.6 NaHCO3, 4.2 NaH2PO4, 5.6 glucose and 0.56 ascorbate. Calcium was adjusted using a 0.2 M calcium chloride solution. All BHM were first analysed at 3 Hz with 5 ms square pulses of 200 mA in order to pace at approximately the embryonic heart rate. BHM were mechanically stretched at intervals of 125 μm until Lmax, i.e. the tissue length were maximum twitch tension/force of contraction was recorded in the presence of maximally inotropically active calcium concentrations (2 mmol/L; Frank-Starling mechanism). Subsequently, BHM were subjected to different calcium concentrations (0.2, 0.4, 0.8, 1.2, 1.6, 2.0, 2.4 mM) and the twitch force recorded. […]

[4] = tested on: bioengineered heart muscle (BHM); experiment: Flow cytometry of disassociated BHM (cell composition, cardiomyocyte size, cell cycle, cell number); details: for cardiomyocyte size: growth factor added during cardiac maturation (FGF2: 10 ng/mL, TGFb1: 1 ng/mL)
Method: as §3
For the initial BHM digestion protocol, BHMs were disassociated in 0.025 mg/ml Liberase TM (Roche), 30 mM 2,3-butanedione monoxime at 37° C. for 60 min in PBS. To preserve cell surface markers, BHM was disassociated using the same protocol as for the 2D digestion.
as §2

[5] = calcium adjusted to 1.2 mM during cardiac maturation
[6] = ASC-2-P during the entire differentiation protocol, data not shown

In the case of Cc1c[nH]c(-c2cnc(NCCNc3ccc(C#N)cn3)nc2-c2ccc(Cl)cc2Cl)n1 [CHIR, CHIR99021, reference compound], the beating activity ([1]; CHIR alone or with the differentiation factors used in FIG. 1b,c) is reported as “unable to induce any beating activity”.

For [Ca+2] [calcium], the “calcium handling proteins by qPCR (CASQ2, PLN, ATP2A2, RYR2)” value ([2]; calcium adjusted to 1.2 mM, data not shown) was “no changes in calcium handling proteins”, the EC50 ([3]; 29-30 day old BHM (increased culture time), read-out: calcium EC50 (twitch tension)) was 700 µM and the EC50 ([3]; 22 day old BHM (previous data), read-out: calcium EC50 (twitch tension)) was 200 µM. The elastic modulus [3, 5] was “increase”, the resting tension [3, 5] was “increase in resting tension” and the “twitch tension of the BHM” value ([3]; calcium adjusted to 1.2 mM during cardiac maturation (RPMI 0.42 mM)) was “greatly increased the twitch tension”. It also gave an EC50 ([3]; characteristic of the BHM obtained by the method, read-out: calcium EC50) greater than 200 µM.

For c1cc(-c2cnn3cc(-c4ccc(OCCN5CCCCC5)cc4)cnc23)ccn1 [dorsomorphin, reference compound], the “twitch tension/force of contraction, % of the control group” value ([3]; 2 μmol/L dorsomorphin with each medium exchange from day 6 onwards) was 47%.

CC(C)NCC(O)c1ccc(O)c(O)c1 (stereo not shown) [isoprenaline, reference compound] was tested, and the “inotropic response with extended culture” value ([3]; 1 μM isoprenaline, 29-30 day vs 22 day old BHM, paced at 0.6 mM calcium) was “increased inotropic response” and the inotropic response ([3]; 1 μM isoprenaline, paced conditions at 0.6 mM calcium) was “more than 40 μN”.

“FGF2: growth factor FGF2 (Miltenyi Biotec)” was tested, and the α-actinin ([1]; 5 ng/ml FGF2 during the first 3 days of differentiation, flow cytometry day 16) was “trend to increased α-actinin”, the MESP1 expression ([1]; 5 ng/ml FGF2 during the first 3 days of differentiation, qPCR day 3) was “trend to increased MESP1 expression” and the “pathological hypertrophy marker ANP expression” value [2] was “induced (variably) pathological hypertrophy marker ANP”. For the same molecule, the β-MHC/α-MHC expression ratio [2] was “did not change β-MHC/α-MHC expression ratio”, the cardiomyocyte size [4] was “increase in cardiomyocyte size” and the “twitch tension/force of contraction” value [3] was “trend to decreased twitch tension”.

In the case of “L-ascorbic acid 2 phosphate sesquimagnesium salt hydrate [ASC-2-P, reference compound]”, the “cardiac differentiation efficiency in 2D protocol” value [1, 6] is reported as “without changes in cardiac differentiation efficiency”, the “number of cells in 2D protocol” value [1, 6] is reported as “significantly increasing the number of cells” and the cardiomyocyte fraction ([4]; ASC-2-P supplemented days 0-13) is reported as “trend to increased cardiomyocyte fraction”. The stromal cell fraction ([4]; ASC-2-P supplemented days 0-13) was “no change in the stromal cell fraction” and the “BHM twitch tension/force of contraction” value ([3]; ASC-2-P supplemented during early BHM culture, days 0-13) was “significantly improved”.

For TGFβ1: growth factor TGFβ1 (Peprotech), the “pathological hypertrophy marker ANP expression” value [2] was “decreased”, the β-MHC/α-MHC expression ratio [2] was “more mature β-MHC/α-MHC expression ratio” and the cardiomyocyte size [4] was “increase in cardiomyocyte size”. The “twitch tension/force of contraction” value [3] was “trend to increased twitch tension” and the “contractile function of BHM (FOC: force of contraction)” value ([3]; increasing TGFβ-1 during cardiac maturation phase, 0.3-10 ng/ml tested) was “enhances contractile function of BHM; also recorded: enhancement of contractile function of BHM in a concentration dependent manner”.

B1: BMP4: growth factor BMP4 (R&D Systems) (protein, UniProt P12644 293-408, looked up)
Bone morphogenetic protein 4: SPKHHSQRARKKNKNCRRHSLYVDFSDVGWNDWIVAPPGYQAFYCHGDCPFPLADHLNSTNHAIVQTLVNSVNSSIPKACCVPTELSAISMLYLDEYDKVVLKNYQEMVVEGCGCR
B1 was tested, and the “BMP4 concentration giving optimal and consistent induction of MESP1 and α-actinin expression” value ([1]; BMP4 concentration varied whilst CHIR is present) was 5 ng/mL.
